Test results as given in patent US20240383904A1, “HETEROCYCLIC COMPOUNDS” (Hoffmann-La Roche Inc., priority 2021, published 2024).

Target: T1, MAGL (Homo sapiens, UniProt Q99685)
T1 sequence (Q99685 1-303): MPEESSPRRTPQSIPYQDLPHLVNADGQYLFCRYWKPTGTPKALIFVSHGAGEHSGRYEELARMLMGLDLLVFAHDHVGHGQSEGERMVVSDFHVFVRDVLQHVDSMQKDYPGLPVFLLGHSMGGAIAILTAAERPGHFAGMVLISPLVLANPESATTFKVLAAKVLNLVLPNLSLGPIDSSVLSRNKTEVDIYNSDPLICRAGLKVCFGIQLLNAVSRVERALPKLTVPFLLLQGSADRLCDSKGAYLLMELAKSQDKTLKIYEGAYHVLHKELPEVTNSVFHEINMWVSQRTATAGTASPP
Test: 2-AG assay: MAGL inhibitory activity by hydrolysis of 2-arachidonoylglycerol to arachidonic acid, followed by mass spectrometry
Format: biochemical
Conditions: 15 min preincubation, 30 min reaction at RT, 8 μM 2-arachidonoylglycerol

| Structure (SMILES) | IC50 [nM] |
| --- | --- |
| O=C1COCC2(CN(C(=O)N3CC4(CCC(Cc5ccc(C(F)(F)F)cn5)CC4)C3)C2)N1 [Example 87, 2-[7-[[5-(trifluoromethyl)-2-pyridyl]methyl]-2-azaspiro[3.5]nonane-2-carbonyl]-8-oxa-2,5-diazaspiro[3.5]nonan-6-one] | 6.42 |
| O=C1CCC2(CN(C(=O)N3CC4(CN(Cc5ccc(S(=O)(=O)C(F)(F)F)cc5F)C4)C3)C2)N1 [Example 258, 2-[6-[[2-fluoro-4-(trifluoromethylsulfonyl)phenyl]methyl]-2,6-diazaspiro[3.4]heptane-2-carbonyl]-2,5-diazaspiro[3.4]octan-6-one] | 18.6 |
| CS(=O)(=O)c1cc(C(F)(F)F)ccc1CC1CC2(C1)CN(C(=O)N1CC3(CCC(=O)N3)C1)C2 [Example 35, 2-[6-[2-mesyl-4-(trifluoromethyl)benzyl]-2-azaspiro[3.3]heptane-2-carbonyl]-2,5-diazaspiro[3.4]octan-6-one] | 1.43 |
| O=C1NC2(CO1)CN(C(=O)N1CC3(CC(Nc4ccc(C(F)(F)F)nn4)C3)C1)C2 [Example 51, 2-[6-[[6-(trifluoromethyl)pyrida-zin-3-yl]amino]-2-azaspiro[3.3]heptane-2-carbonyl]-7-oxa-2,5-diazaspiro[3.4]octan-6-one] | 24 |
| O=C1NC2(CO1)CN(C(=O)N1CC3(CCC(OCC4(C(F)(F)F)CC4)CC3)C1)C2 [Example 62, 2-[7-[[1-(trifluoromethyl)cyclopro-pyl]methoxy]-2-azaspiro[3.5]nonane-2-carbonyl]-7-oxa-2,5-diazaspiro[3.4]octan-6-one] | 0.98 |
| N#Cc1ccc(CC2CC3(C2)CN(C(=O)N2CC4(CCC(=O)N4)C2)C3)cc1C(F)(F)F [Example 219, 4-[[2-(6-oxo-2,5-diazaspiro[3.4]octane-2-carbonyl)-2-azaspiro[3.3]heptan-6-yl]methyl]-2-(trifluoromethyl)benzoni-trile] | 0.43 |
| O=C1NC2(CO1)CN(C(=O)N1CC3(CCC(Cc4ncc(F)cc4F)C3)C1)C2 (stereo not shown) [Example 103, 2-[6-[(3,5-difluoro-2-pyridyl)methyl]-2-azaspiro[3.4]octane-2-carbonyl]-7-oxa-2,5-diazaspiro[3.4]octan-6-one] | 0.28 |
| O=C1COCC2(CN(C(=O)N3CC4(CC(NS(=O)(=O)c5cccc(C(F)(F)F)c5)C4)C3)C2)N1 [Example 208, N-[2-(6-oxo-8-oxa-2,5-diazaspiro[3.5]nonane-2-carbonyl)-2-azaspiro[3.3]heptan-6-yl]-3-(trifluoromethyl)benzene-sulfonamide] | 67.1 |
| O=C1COCC2(CN(C(=O)N3CC4(CC(Cc5ccc(S(=O)(=O)C(F)(F)F)cn5)C4)C3)C2)N1 [Example 264, 2-[6-[[5-(trifluoromethylsulfonyl)-2-pyridyl]methyl]-2-azaspiro[3.3]heptane-2-carbonyl]-8-oxa-2,5-diazaspiro[3.5]nonan-6-one] | 5.51 |
| O=C1CCC2(CN(C(=O)N3CC4(C3)CN(S(=O)(=O)c3ccccc3OC(F)(F)F)C4)C2)N1 [Example 200, 2-[2-[2-(trifluoromethoxy)phenyl]sulfonyl-2,6-diazaspiro[3.3]heptane-6-carbonyl]-2,5-diazaspiro[3.4]octan-6-one] | 116 |
| O=C1CCC2(CN(C(=O)N3CC4(CCN(Cc5ccc(C(F)(F)F)cc5F)CC4)C3)C2)N1 [Example 132] | 0.79 |
| O=C1CCC2(CN(C(=O)N3CC4(CC(Oc5cncc(C(F)(F)F)c5)C4)C3)C2)N1 [Example 299, 2-[6-[[5-(trifluoromethyl)-3-pyridyl]oxy]-2-azaspiro[3.3]heptane-2-carbonyl]-2,5-diazaspiro[3.4]octan-6-one] | 63.5 |
| N=[S@](=O)(c1ccc(CC2CC3(C2)CN(C(=O)N2CC4(COCC(=O)N4)C2)C3)cc1)C(F)(F)F [Example 285, 2-[6-[[4-(trifluoromethylsulfoni-midoyl)phenyl]methyl]-2-azaspiro[3.3]heptane-2-carbonyl]-8-oxa-2,5-diazaspiro[3.5]nonan-6-one] | 4.95 |
| O=C1COCC2(CN(C(=O)N3CC4(CC(Cc5cnn(C(F)(F)F)c5)C4)C3)C2)N1 [Example 365, 2-[6-[[1-(trifluoromethyl)pyrazol-4-yl]methyl]-2-azaspiro[3.3]heptane-2-carbonyl]-8-oxa-2,5-diazaspiro[3.5]nonan-6-one] | 41 |
| O=C1CCC2(CN(C(=O)N3CC4(CC(Cn5cc(C6(C(F)(F)F)CC6)cn5)C4)C3)C2)N1 [Example 311, 2-[6-[[4-[1-(trifluoromethyl)cyclopro-pyl]pyrazol-1-yl]methyl]-2-azaspiro[3.3]heptane-2-carbonyl]-2,5-diazaspiro[3.4]octan-6-one] | 4.08 |
| CS(=O)(=O)c1ccc(CN2CC3(C2)CN(C(=O)N2CC4(COC(=O)N4)C2)C3)cc1 [Example 164, 2-[6-(4-mesylbenzyl)-2,6-diazaspiro[3.3]heptane-2-carbonyl]-7-oxa-2,5-diazaspiro[3.4]octan-6-one] | 52.5 |

| Structure (SMILES) | IC50 [nM] |
| --- | --- |
| NC(=O)c1ccc(CC2CC3(C2)CN(C(=O)N2CC4(COC(=O)N4)C2)C3)cc1OC(F)(F)F [Example 244, 4-[[2-(6-oxo-7-oxa-2,5-diazaspiro[3.4]octane-2-carbonyl)-2-azaspiro[3.3]heptan-6-yl]methyl]-2-(trifluoromethoxy)benz-amide] | 0.94 |
| O=C1NC2(CO1)CN(C(=O)N1CC3(CC(Cc4cccc(S(=O)(=O)C(F)(F)F)c4)C3)C1)C2 [Example 21, 2-[6-(3-triflylbenzyl)-2-azaspiro[3.3]heptane-2-carbonyl]-7-oxa-2,5-diazaspiro[3.4]octan-6-one] | 0.01 |
| O=C1COCC2(CN(C(=O)N3CC4(CC[C@H](Cc5ccc(S(=O)(=O)C(F)(F)F)cc5)C4)C3)C2)N1 [Example 235, 2-[(6R)-6-[[4-(trifluoromethylsulfonyl)phenyl]methyl]-2-azaspiro[3.4]octane-2-carbonyl]-8-oxa-2,5-diazaspiro[3.5]nonan-6-one] | 7.35 |
| O=C1NC2(CO1)CN(C(=O)N1CC3(CC(N4CC(CC(F)(F)F)C4)C3)C1)C2 [Example 81, 2-[6-[3-(2,2,2-trifluoroethyl)azetidin-1-y1]-2-azaspiro[3.3]heptane-2-carbonyl]-7-oxa-2,5-diazaspiro[3.4]octan-6-one] | 7.62 |
| Cc1cc(C(F)(F)F)n(CC2CC3(C2)CN(C(=O)N2CC4(CCC(=O)N4)C2)C3)n1 [Example 328, 2-[6-[[3-methyl-5-(trifluoromethyl)pyrazol-1-yl]methyl]-2-azaspiro[3.3]heptane-2-carbonyl]-2,5-diazaspiro[3.4]octan-6-one] | 15.9 |
| O=C1CCC2(CN(C(=O)N3CC4(CCN(Cc5ccc(S(=O)(=O)C(F)(F)F)cc5)CC4)C3)C2)N1 [Example 82, 2-[7-(4-triflylbenzyl)-2,7-diazaspiro[3.5]nonane-2-carbonyl]-2,5-diazaspiro[3.4]octan-6-one] | 5.58 |
| CS(=O)(=O)c1cc(F)ccc1CC1CC2(C1)CN(C(=O)N1CC3(COCC(=O)N3)C1)C2 [Example 147, 2-[6-(4-fluoro-2-mesyl-benzyl)-2-azaspiro[3.3]heptane-2-carbonyl]-8-oxa-2,5-diazaspiro[3.5]nonan-6-one] | 23.2 |
| CS(=O)(=O)c1cccc(CC2CC3(C2)CN(C(=O)N2CC4(CCC(=O)N4)C2)C3)c1 [Example 9, 2-[6-(3-mesylbenzyl)-2-azaspiro[3.3]heptane-2-carbonyl]-2,5-diazaspiro[3.4]octan-6-one] | 20.5 |
| O=C1CCC2(CN(C(=O)N3CC4(CC(Cc5ccc(S(=O)(=O)C(F)(F)F)cn5)C4)C3)C2)N1 [Example 262, 2-[6-[[5-(trifluoromethylsulfonyl)-2-pyridyl]methyl]-2-azaspiro[3.3]heptane-2-carbonyl]-2,5-diazaspiro[3.4]octan-6-one] | 1.06 |
| N#Cc1cc(C(F)(F)F)ncc1CC1CC2(C1)CN(C(=O)N1CC3(COC(=O)N3)C1)C2 [Example 211, 5-[[2-(6-oxo-7-oxa-2,5-diazaspiro[3.4]octane-2-carbonyl)-2-azaspiro[3.3]heptan-6-yl]methyl]-2-(trifluoromethyl)pyridine-4-carbonitrile] | 0.39 |
| N#Cc1cc(C(F)(F)F)ncc1C[C@H]1CCC2(C1)CN(C(=O)N1CC3(COC(=O)N3)C1)C2 [Example 212, 5-[[(6S)-2-(6-oxo-7-oxa-2,5-diazaspiro[3.4]octane-2-carbonyl)-2-azaspiro[3.4]octan-6-yl]methyl]-2-(trifluoromethyl)pyridine-4-carbonitrile] | 0.46 |
| O=C1NCC2(CN(C(=O)N3CC4(CC(Cc5ccc(F)cc5F)C4)C3)C2)N1 [Example 38, 2-[6-(2,4-difluorobenzyl)-2-azaspiro[3.3]heptane-2-carbonyl]-2,5,7-triazaspiro[3.4]octan-6-one] | 2.34 |
| O=C1COCC2(CN(C(=O)N3CC4(CC(Cc5cc(C(F)(F)F)ccn5)C4)C3)C2)N1 [Example 178, 2-[6-[[4-(trifluoromethyl)-2-pyridyl]methyl]-2-azaspiro[3.3]heptane-2-carbonyl]-8-oxa-2,5-diazaspiro[3.5]nonan-6-one] | 15.4 |
| O=C1CCC2(CN(C(=O)N3CC4(CC(Cn5cc(C(F)(F)F)ccc5=O)C4)C3)C2)N1 [Example 259, 2-[6-[[2-oxo-5-(trifluoromethyl)-1-pyridyl]methyl]-2-azaspiro[3.3]heptane-2-carbonyl]-2,5-diazaspiro[3.4]octan-6-one] | 25.9 |
| O=C1CCC2(CN(C(=O)N3CC4(CCN(Cc5cccc(S(=O)(=O)C(F)(F)F)c5)CC4)C3)C2)N1 [Example 136, 2-[7-(3-triflylbenzyl)-2,7-diazaspiro[3.5]nonane-2-carbonyl]-2,5-diazaspiro[3.4]octan-6-one] | 4.66 |
